A short description of series [1]: Lipophilicity determination by a shake-flask method (Comparative Example), 1-octanol/phosphate buffer pH 7.4, LC/MS. It is filed as physicochemical. Particulars: 1-octanol / phosphate buffer solution pH 7.4, shaken 10 minutes.
A short description of series [2]: Lipophilicity (logD7.4) determination according to the present invention, two 1-octanol/phosphate buffer solvent systems in 96 deep well plate, LC/MS. The following applies: 1-octanol:phosphate buffer pH 7.4 at 5:95 and 50:50, 25° C., 3 hours shaking; for logD: read-out: LogD Inventive determination method (Example). The format is physicochemical. The procedure:
Thirty-eight test compounds were determined for logD7.4 according to the present invention. The solution amount per well was set to 1 mL, and 1-octanol was used as a hydrophobic solvent and a phosphate buffer solution buffered at pH 7.4 as a hydrophilic solvent. The amounts of the test substance to be added to the first and second solvent systems, respectively, were adjusted to be equal (X=Y in Equation I). […] Following the above-mentioned conditions, X=Y, a=5, b=95, and c=d=50 were substituted into Equation I to obtain the following quadratic equation (Equation II). As described below, once the test substance was determined, the value of C2/C1 could be determined on the basis of the peak area values and dilution ratios. The resulting value was substituted into Equation II to determine the distribution ratio D, and the common logarithm of this ratio was obtained to thereby compute logD7.4.
Dispensing, shaking, dilution and other steps were automated by a dispensing robot (Hamilton; MicroLabSTARlet), and transfer of plates between systems and some other tasks were performed manually. The specific test procedure is as follows.
Dulbecco's reagent (for 1 L of Sigma's PBS solution; containing 8 g of sodium chloride, 1.15 g of anhydrous sodium monohydrogen phosphate, 0.2 g of potassium chloride, and 0.2 g of anhydrous potassium dihydrogen phosphate) was diluted to give a volume of 1 L, stirring was performed, and insoluble matters were filtered off. The pH of the solution was measured and adjusted to pH 7.4 with 1N HCl.
A separating funnel was charged with a sufficient amount of each of 1-octanol (Kanto Chemical; for distribution coefficient determination) and the phosphate buffer solution prepared in (1), they were mixed well, and the mixture was allowed to stand overnight at room temperature. The upper and lower phases were recovered separately to obtain 1-octanol saturated with the phosphate buffer solution (saturated 1-octanol) and the phosphate buffer solution saturated with 1-octanol (saturated phosphate buffer solution). The resulting solutions were stored at room temperature.
A test compound was added to DMSO to prepare a 10 mM solution.
(1) Ten microliters of the 10 mM test compound solution in DMSO and then 490 μL of saturated 1-octanol were dispensed into a 96 deep well plate. Stirring by suction and ejection was repeated 10 times to prepare a standard octanol solution of the test compound.
(2) Fifty microliters of the standard octanol solution was dispensed into each of two wells; thereafter, 950 μL of the saturated phosphate buffer solution was dispensed into the first well (hydrophobic solvent:hydrophilic solvent=5:95), and 500 μL of the saturated phosphate buffer solution and 450 μL of saturated 1-octanol were dispensed into the second well (hydrophobic solvent:hydrophilic solvent=50:50).
(3) A pressure curable sealant was applied to the multiwell plate, and then the plate was shaken on a shaker at 25° C. for 3 hours. After the shaking, centrifugation was performed at 3000 rpm for 5 minutes.
(4) The lower phase (aqueous phase) was drawn from the first well and diluted 10-fold with methanol to thereby prepare a sample. From the second well, the upper phase (1-octanol phase) was drawn and diluted 10-fold and 50-fold with methanol to thereby prepare two additional samples.
With these 4 samples placed on an LC/MS auto sampler, determination was performed automatically.
(3) The aqueous solution of 0.1% formic acid (solution A) and the acetonitrile solution of 0.1% formic acid (solution B) were used as a HPLC mobile phase.
(4) HPLC was performed using Waters Acquity with a binary pump. The column stationary phase used was a reversed-phase column having octadecyl groups (Acquity BEH C18, 1.7 μm, 2.0×30 mm). The column temperature was set to 50° C.
(5) MS was performed using Waters ZQ or SQD. Data was acquired with the detection mode being set to ESI^+ and the type of ion to be detected being set to [M+H]^+.

The conditions of series [3]: cited from earlier work.

The values below come from patent US20130261986A1, “METHOD FOR DETERMINING LIPOPHILICITY” (ASTELLAS PHARMA INC., priority 2010, published 2013).

In general, logD refers to lipophilicity at a set pH, counting ionised and neutral species. Turning to `CCCN(CCC)S(=O)(=O)c1ccc(C(=O)O)cc1` [Probenecid], the logD is -0.3 in series [1] and 0 in series [2].

With `CCc1ccc(CCOc2ccc(CC3SC(=O)NC3=O)cc2)nc1` (stereo not drawn) [Pioglitazone], the logD came out at 3 in series [1] and 3.2 in series [2].

Take `CCOc1ccccc1OCCN[C@H](C)Cc1ccc(OC)c(S(N)(=O)=O)c1` [Tamsulosin]: the logD in series [1] and in series [2] was 0.8 each time.

In the case of `COc1ccc2c(c1)c(CC(=O)O)c(C)n2C(=O)c1ccc(Cl)cc1` [Indomethacin], in series [1], the logD came out at 1.2. Besides, the “LogD Inventive determination method (Example)” value in series [2] is on record as 1.1. In addition, the “LogD Literature value” in series [3] is recorded as 0.9.

For `OCCN1CCN(CCCN2c3ccccc3Sc3ccc(Cl)cc32)CC1` [Perphenazine], the logD in series [1] worked out at 3.8; in series [2], 3.6.

In the case of `Cc1ccc(-c2cc(C(F)(F)F)nn2-c2ccc(S(N)(=O)=O)cc2)cc1` [Celecoxib], the logD in series [1] was 4.3; in series [2] it was 4.5.

Take `NC(=O)N1c2ccccc2C=Cc2ccccc21` [Carbamazepine]: the results for the logD in series [1] and in series [2] were 1.8 and 2, respectively. Moreover, the “LogD Literature value” in series [3] is 1.5.

With `CC(CCc1ccccc1)NCC(O)c1ccc(O)c(C(N)=O)c1` (stereo not drawn) [Labetalol], the logD in series [1] came out at 1; in series [2], 0.9.
